Laboratory results reported in article PMC7345905, “Microbial Metabolite Urolithin B Inhibits Recombinant Human Monoamine Oxidase A Enzyme” (Metabolites, 2020).
Values joined by “and” are separate entries in the source; they are usually repeats but may differ in a detail not shown here. Equal values may be shown once.

What was measured:
human recombinant MAO-B = target: T1, human recombinant MAO-B (Homo sapiens, UniProt P27338); test: MAO-Glo MAO-B inhibition assay; assay type: biochemical; conditions: N=1-3, listed as UroC
T1 construct: purchased Sigma-Aldrich
T1 sequence (P27338 1-520): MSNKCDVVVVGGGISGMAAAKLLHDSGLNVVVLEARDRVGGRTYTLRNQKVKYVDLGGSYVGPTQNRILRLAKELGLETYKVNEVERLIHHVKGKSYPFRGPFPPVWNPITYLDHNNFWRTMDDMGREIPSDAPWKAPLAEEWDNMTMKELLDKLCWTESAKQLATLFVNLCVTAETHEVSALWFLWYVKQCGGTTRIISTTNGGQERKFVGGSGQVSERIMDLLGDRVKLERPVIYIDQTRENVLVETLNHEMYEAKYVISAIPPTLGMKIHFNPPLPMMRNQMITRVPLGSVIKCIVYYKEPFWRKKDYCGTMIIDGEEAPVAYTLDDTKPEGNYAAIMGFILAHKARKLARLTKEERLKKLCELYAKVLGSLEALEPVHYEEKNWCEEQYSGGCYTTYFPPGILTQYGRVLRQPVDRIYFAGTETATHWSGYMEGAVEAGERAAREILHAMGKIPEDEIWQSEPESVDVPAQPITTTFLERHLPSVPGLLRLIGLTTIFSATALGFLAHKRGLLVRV

human recombinant MAO-A = target: T2, human recombinant MAO-A (Homo sapiens, UniProt P21397); test: MAO-A inhibition kinetics (variable substrate, Lineweaver–Burk plot); assay type: biochemical; set-up: Michaelis-Menten best-fit Vmax of MAO-A / Michaelis-Menten best-fit Vmax of MAO-A, Average: unit not given here; conditions: for MAO-A assay signal (luminescence) / Transformed (reciprocal of MAO-A assay signal) / Michaelis-Menten best-fit Vmax of MAO-A: N=1-3
T2 construct: purchased Sigma-Aldrich
T2 sequence (P21397 1-527): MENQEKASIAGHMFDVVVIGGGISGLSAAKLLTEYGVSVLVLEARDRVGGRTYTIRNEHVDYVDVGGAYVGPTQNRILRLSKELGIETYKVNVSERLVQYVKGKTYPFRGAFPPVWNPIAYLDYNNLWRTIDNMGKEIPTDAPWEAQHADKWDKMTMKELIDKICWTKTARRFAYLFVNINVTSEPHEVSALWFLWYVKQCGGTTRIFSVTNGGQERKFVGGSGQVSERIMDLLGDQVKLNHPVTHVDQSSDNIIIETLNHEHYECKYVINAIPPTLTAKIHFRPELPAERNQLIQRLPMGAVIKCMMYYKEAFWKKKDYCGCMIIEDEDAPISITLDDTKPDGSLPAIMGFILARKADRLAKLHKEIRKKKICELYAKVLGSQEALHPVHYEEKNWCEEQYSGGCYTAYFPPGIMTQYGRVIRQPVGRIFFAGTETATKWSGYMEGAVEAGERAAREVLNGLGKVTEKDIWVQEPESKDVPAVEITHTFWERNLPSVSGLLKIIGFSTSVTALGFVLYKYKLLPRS
Procedure: MAO inhibition assays were performed using a MAO-Glo™ Assay kit (Promega) according to the manufacturer’s instructions. Briefly, 1 µg of human recombinant MAO-A and MAO-B enzyme isoforms were incubated with 160 and 16 µM of MAO substrates, respectively. […] The enzyme reaction was quenched by the addition of a luciferin detection reagent. […] An equal volume of dimethyl sulfoxide (0.1%) was added to the enzyme assay as a control. After 1 h of incubation, the luminescence was measured with a multimode microplate reader (Synergy HT, BioTek, Winooski, VT, USA) to determine the MAO enzyme activities. Initially, the inhibition potential of all the test compounds was evaluated at a concentration of 100 μM. The control reaction (with no inhibitor) with vehicle (DMSO 0.1%) was set at 100% activity. To determine IC50 of the test compounds, the dose dependent enzyme assays were performed. We used range of 0.1 to 50 μM concentrations for MAO-A and 0.1 to 200 μM concentrations of test compounds for the MAO-B enzyme activities. The type of enzyme inhibition was determined using variable concentrations of MAO-A substrate (10–360 µM) and MAO-B substrate (2–64 µM) for the respective enzyme assay. […] A Lineweaver–Burk double reciprocal plot was generated, and the mode of inhibition was determined by visual examination of the plot. The slope of the reciprocal plots was plotted against the inhibitor concentrations and determined the x-axis intercept that represented the inhibitor constant, Ki value.
All experiments were performed in triplicates and data are presented as mean ± standard error of the mean (SEM). The raw data are provided in Supplementary Data, Table S1. Enzyme kinetic data were analyzed using the Lineweaver–Burk plot. Statistical analysis was performed by Student’s t-test using GraphPad Prism Ver. 7.0 (GraphPad Prism Software Inc., San Diego, CA, USA).

[1] = UroC 15 µM, MAO-A substrate 10 uM
[2] = UroC 15 µM, MAO-A substrate 20 uM
[3] = UroC 15 µM, MAO-A substrate 40 uM
[4] = UroC 15 µM, MAO-A substrate 80 uM
[5] = UroC 15 µM, MAO-A substrate 160 uM
[6] = UroC 15 µM, MAO-A substrate 320 uM
[7] = UroC 60 µM, MAO-A substrate 10 uM
[8] = UroC 60 µM, MAO-A substrate 20 uM
[9] = UroC 60 µM, MAO-A substrate 40 uM
[10] = UroC 60 µM, MAO-A substrate 80 uM
[11] = UroC 60 µM, MAO-A substrate 160 uM
[12] = UroC 60 µM, MAO-A substrate 320 uM

mode of inhibition of MAO-A (human recombinant MAO-A; Lineweaver–Burk plot): mixed mode of inhibition
MAO-A assay signal (luminescence), Average (human recombinant MAO-A; [1]): 1825
MAO-A assay signal (luminescence) (human recombinant MAO-A; [1]): 1969 and 1718 and 1788
MAO-A assay signal (luminescence), Average (human recombinant MAO-A; [2]): 3291
MAO-A assay signal (luminescence) (human recombinant MAO-A; [2]): 3541 and 3116 and 3216
MAO-A assay signal (luminescence), Average (human recombinant MAO-A; [3]): 5930.67
MAO-A assay signal (luminescence) (human recombinant MAO-A; [3]): 6537 and 5679 and 5576
MAO-A assay signal (luminescence), Average (human recombinant MAO-A; [4]): 11350.3
MAO-A assay signal (luminescence) (human recombinant MAO-A; [4]): 12348 and 10938 and 10765
MAO-A assay signal (luminescence), Average (human recombinant MAO-A; [5]): 17552.3
MAO-A assay signal (luminescence) (human recombinant MAO-A; [5]): 18484 and 16889 and 17284
MAO-A assay signal (luminescence), Average (human recombinant MAO-A; [6]): 26455.7
MAO-A assay signal (luminescence) (human recombinant MAO-A; [6]): 27220 and 26215 and 25932
Transformed (reciprocal of MAO-A assay signal), Average (human recombinant MAO-A; UroC 15 µM, [1/S] 0.003125): 3.78e-5
Transformed (reciprocal of MAO-A assay signal) (human recombinant MAO-A; UroC 15 µM, [1/S] 0.003125): 3.674e-5 and 3.815e-5 and 3.856e-5
Transformed (reciprocal of MAO-A assay signal), Average (human recombinant MAO-A; UroC 15 µM, [1/S] 0.00625): 5.697e-5
Transformed (reciprocal of MAO-A assay signal) (human recombinant MAO-A; UroC 15 µM, [1/S] 0.00625): 5.41e-5 and 5.921e-5 and 5.7857e-5
Transformed (reciprocal of MAO-A assay signal), Average (human recombinant MAO-A; UroC 15 µM, [1/S] 0.0125): 8.81e-5
Transformed (reciprocal of MAO-A assay signal) (human recombinant MAO-A; UroC 15 µM, [1/S] 0.0125): 8.098e-5 and 9.142e-5 and 9.289e-5
Transformed (reciprocal of MAO-A assay signal), Average (human recombinant MAO-A; UroC 15 µM, [1/S] 0.025): 0.0001686
Transformed (reciprocal of MAO-A assay signal) (human recombinant MAO-A; UroC 15 µM, [1/S] 0.025): 0.000153 and 0.0001761 and 0.0001793
Transformed (reciprocal of MAO-A assay signal), Average (human recombinant MAO-A; UroC 15 µM, [1/S] 0.05): 0.0003039
Transformed (reciprocal of MAO-A assay signal) (human recombinant MAO-A; UroC 15 µM, [1/S] 0.05): 0.0002824 and 0.0003209 and 0.0003109
Transformed (reciprocal of MAO-A assay signal), Average (human recombinant MAO-A; UroC 15 µM, [1/S] 0.1): 0.0005479
Transformed (reciprocal of MAO-A assay signal) (human recombinant MAO-A; UroC 15 µM, [1/S] 0.1): 0.0005079 and 0.0005821 and 0.0005593
MAO-A assay signal (luminescence), Average (human recombinant MAO-A; [7]): 728
MAO-A assay signal (luminescence) (human recombinant MAO-A; [7]): 706 and 793 and 685
MAO-A assay signal (luminescence), Average (human recombinant MAO-A; [8]): 1221
MAO-A assay signal (luminescence) (human recombinant MAO-A; [8]): 1198 and 1213 and 1252
MAO-A assay signal (luminescence), Average (human recombinant MAO-A; [9]): 2305.33
MAO-A assay signal (luminescence) (human recombinant MAO-A; [9]): 2310 and 2236 and 2370
MAO-A assay signal (luminescence), Average (human recombinant MAO-A; [10]): 4337.33
MAO-A assay signal (luminescence) (human recombinant MAO-A; [10]): 4338 and 4394 and 4280
MAO-A assay signal (luminescence), Average (human recombinant MAO-A; [11]): 8033.33
MAO-A assay signal (luminescence) (human recombinant MAO-A; [11]): 7953 and 7801 and 8346
MAO-A assay signal (luminescence), Average (human recombinant MAO-A; [12]): 14867.3
MAO-A assay signal (luminescence) (human recombinant MAO-A; [12]): 14760 and 14941 and 14901
Transformed (reciprocal of MAO-A assay signal), Average (human recombinant MAO-A; UroC 60 µM, [1/S] 0.003125): 6.726e-5
Transformed (reciprocal of MAO-A assay signal) (human recombinant MAO-A; UroC 60 µM, [1/S] 0.003125): 6.775e-5 and 6.693e-5 and 6.711e-5
Transformed (reciprocal of MAO-A assay signal), Average (human recombinant MAO-A; UroC 60 µM, [1/S] 0.00625): 0.0001245
Transformed (reciprocal of MAO-A assay signal) (human recombinant MAO-A; UroC 60 µM, [1/S] 0.00625): 0.0001257 and 0.0001282 and 0.0001198
Transformed (reciprocal of MAO-A assay signal), Average (human recombinant MAO-A; UroC 60 µM, [1/S] 0.0125): 0.0002306
Transformed (reciprocal of MAO-A assay signal) (human recombinant MAO-A; UroC 60 µM, [1/S] 0.0125): 0.0002305 and 0.0002276 and 0.0002336
Transformed (reciprocal of MAO-A assay signal), Average (human recombinant MAO-A; UroC 60 µM, [1/S] 0.025): 0.0004338
Transformed (reciprocal of MAO-A assay signal) (human recombinant MAO-A; UroC 60 µM, [1/S] 0.025): 0.0004329 and 0.0004472 and 0.0004219
Transformed (reciprocal of MAO-A assay signal), Average (human recombinant MAO-A; UroC 60 µM, [1/S] 0.05): 0.000819
Transformed (reciprocal of MAO-A assay signal) (human recombinant MAO-A; UroC 60 µM, [1/S] 0.05): 0.0008347 and 0.0008244 and 0.0007987
Transformed (reciprocal of MAO-A assay signal), Average (human recombinant MAO-A; UroC 60 µM, [1/S] 0.1): 0.001374
Transformed (reciprocal of MAO-A assay signal) (human recombinant MAO-A; UroC 60 µM, [1/S] 0.1): 0.001416 and 0.001261 and 0.00146
Michaelis-Menten best-fit Vmax of MAO-A, Average (human recombinant MAO-A; in presence of UroC 15 uM): 50085
Michaelis-Menten best-fit Vmax of MAO-A (human recombinant MAO-A; in presence of UroC 15 uM): 47688 and 52039 and 50528
Michaelis-Menten best-fit Vmax of MAO-A, Average (human recombinant MAO-A; in presence of UroC 60 uM): 82346
Michaelis-Menten best-fit Vmax of MAO-A (human recombinant MAO-A; in presence of UroC 60 uM): 96239 and 71263 and 79536
Ki (human recombinant MAO-A; x-axis intercept of slopes of Lineweaver–Burk plots vs inhibitor concentration): 44.3 µM
SMILES: O=c1oc2cc(O)ccc2c2cc(O)c(O)cc12 [UC, urolithin-C]
MAO-B enzyme assay, Percent of control (human recombinant MAO-B; 0.1 µM): 110.306% of control and 101.117% of control and 109.128% of control
MAO-B enzyme assay, Percent of control (human recombinant MAO-B; 1 µM): 102.407% of control and 98.5247% of control and 98.1149% of control
MAO-B enzyme assay, Percent of control (human recombinant MAO-B; 10 µM): 102.182% of control and 94.8161% of control and 92.9925% of control
MAO-B enzyme assay, Percent of control (human recombinant MAO-B; 25 µM): 89.5195% of control and 89.6937% of control and 94.0068% of control
MAO-B enzyme assay, Percent of control (human recombinant MAO-B; 50 µM): 87.5627% of control and 83.096% of control and 84.7864% of control
MAO-B enzyme assay, Percent of control (human recombinant MAO-B; 100 µM (Figure 1C), 100 µM): 86.1998% of control and 88.2904% of control and 90.5046% of control
MAO-B enzyme assay, Percent of control (human recombinant MAO-B; 100 µM): 82.8808% of control and 77.9531% of control and 81.7949% of control
MAO-B enzyme assay, Percent of control (human recombinant MAO-B; 200 µM): 43.4074% of control and 44.8007% of control and 46.1838% of control
